Key:
NBD1 = target: T1, NBD1 (Homo sapiens, UniProt P13569); experiment: Aggregation analysis using differential static light scattering (DSLS), thermal stability of NBD1 (ΔTagg); format: binding; conditions: ΔTagg versus DMSO control, NBD1 0.2 mg/ml
T1 construct: Purified recombinant NBD1 was produced using previously described methods; made in house
How it was run: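 Thermal aggregation of purified NBD1 was followed by static light scattering during a 1° C./min ramp to 70° C. Protein was at 0.2 mg/ml with 2 mM ATP at pH7.6. Each compound's Tagg was referenced to DMSO controls.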

CFTR = target: T2, CFTR (Homo sapiens, UniProt P13569, DEL508-508); experiment: TECC24 AUC fold over DMSO @10 μM, CFTR-mediated transepithelial chloride transport in CF-HBE cells; format: cell-based; conditions: test agent AUC divided by DMSO vehicle AUC, primary CF-HBE cells, ΔF508 homozygous donor, 48 hours incubation
T2 construct: Primary human bronchial epithelial cells from a ΔF508 homozygous CF donor; host or cells: primary human bronchial epithelial cells (CF-HBE), ΔF508 homozygous donor
How it was run: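 Primary ΔF508-homozygous CF bronchial epithelial cells on inserts were incubated 48 h at 36.5 °C with compound in IL-13-containing medium. VT and TEER were then recorded in current-clamp mode (pH 7.4 HEPES bath) with benzamil 10 μM, forskolin 10 μM, then CFTR inhibitor-172 20 μM. The IEQ AUC between forskolin and inhibitor was divided by vehicle AUC.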

T1 sequence (P13569 423-646 limits assumed): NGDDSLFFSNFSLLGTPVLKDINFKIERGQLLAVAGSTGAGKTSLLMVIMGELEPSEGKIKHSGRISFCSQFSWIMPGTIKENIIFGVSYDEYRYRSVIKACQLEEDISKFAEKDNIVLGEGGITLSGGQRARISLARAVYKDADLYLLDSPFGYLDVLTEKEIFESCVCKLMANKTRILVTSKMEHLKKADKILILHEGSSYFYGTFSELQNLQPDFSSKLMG
T2 sequence (P13569 with tags, fused parts or gaps DEL508-508): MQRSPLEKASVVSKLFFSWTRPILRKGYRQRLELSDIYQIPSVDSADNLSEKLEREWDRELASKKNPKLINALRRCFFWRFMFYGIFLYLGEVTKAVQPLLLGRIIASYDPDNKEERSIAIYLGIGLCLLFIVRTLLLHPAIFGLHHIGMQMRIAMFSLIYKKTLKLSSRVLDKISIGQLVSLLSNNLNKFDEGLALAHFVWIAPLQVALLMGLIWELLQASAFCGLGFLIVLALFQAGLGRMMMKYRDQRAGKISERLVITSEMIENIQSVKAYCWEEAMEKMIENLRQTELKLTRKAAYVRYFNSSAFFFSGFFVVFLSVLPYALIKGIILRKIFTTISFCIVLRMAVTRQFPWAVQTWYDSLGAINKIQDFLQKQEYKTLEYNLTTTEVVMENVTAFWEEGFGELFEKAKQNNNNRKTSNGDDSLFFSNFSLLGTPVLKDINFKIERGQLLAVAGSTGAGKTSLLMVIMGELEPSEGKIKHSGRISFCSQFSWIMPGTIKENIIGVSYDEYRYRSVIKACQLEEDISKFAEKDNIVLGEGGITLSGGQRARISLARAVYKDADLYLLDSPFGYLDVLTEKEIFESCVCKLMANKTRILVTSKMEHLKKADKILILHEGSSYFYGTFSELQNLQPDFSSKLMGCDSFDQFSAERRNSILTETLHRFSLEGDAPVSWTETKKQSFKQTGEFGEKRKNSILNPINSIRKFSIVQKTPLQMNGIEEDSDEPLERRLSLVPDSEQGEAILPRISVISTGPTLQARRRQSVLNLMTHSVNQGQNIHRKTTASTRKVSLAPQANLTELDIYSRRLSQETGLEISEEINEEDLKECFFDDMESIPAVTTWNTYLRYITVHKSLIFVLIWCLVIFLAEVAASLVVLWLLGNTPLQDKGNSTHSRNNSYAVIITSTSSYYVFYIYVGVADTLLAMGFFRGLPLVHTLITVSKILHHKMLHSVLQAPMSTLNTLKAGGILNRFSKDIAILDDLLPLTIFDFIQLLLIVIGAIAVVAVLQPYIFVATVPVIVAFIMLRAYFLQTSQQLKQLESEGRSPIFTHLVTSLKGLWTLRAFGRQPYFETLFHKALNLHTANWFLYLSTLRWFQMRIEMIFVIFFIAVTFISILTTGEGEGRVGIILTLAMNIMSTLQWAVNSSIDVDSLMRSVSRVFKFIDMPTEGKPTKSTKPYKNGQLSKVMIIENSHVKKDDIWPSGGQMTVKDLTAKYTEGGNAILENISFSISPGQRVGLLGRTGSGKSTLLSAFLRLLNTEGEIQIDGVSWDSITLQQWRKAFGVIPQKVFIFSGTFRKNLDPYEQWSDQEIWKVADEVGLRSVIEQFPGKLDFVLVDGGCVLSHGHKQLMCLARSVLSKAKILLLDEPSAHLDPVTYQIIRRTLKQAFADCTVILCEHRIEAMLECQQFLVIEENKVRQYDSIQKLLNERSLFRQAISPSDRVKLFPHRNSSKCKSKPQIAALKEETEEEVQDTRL

SMILES	DSLS 3D (100 μM ΔT) (NBD1)	TECC (AUC, 10 μM) (CFTR)
Cn1nc2nc1-c1cc(ccn1)Oc1c(F)cc3[nH]ccc3c1CCS(=O)(=O)CC(C)(C)CCC[C@]2(C)c1cccc(CC2(C(=O)O)CC2)c1 [Compound 290, 1-[[3-[(6R)-22-fluoro-3,6,10,10-tetramethyl-12,12-dioxo-24-oxa-12λ6-thia-3,4,19,28,30-pentazapentacyclo[23.3.1.12,5.015,23.016,20]triaconta-1(29),2(30),4,15,17,20,22,25,27-nonaen-6-yl]phenyl]methyl]cyclopropanecarboxylic Acid]	C (a value greater than 10 °C and less than or equal to 25 °C is marked “C”)	C (a value between 20 and 80 is marked “C”)
CC(Cc1cccc(C2(C)CCCC(C)(C)CS(=O)(=O)CCc3c(c(F)cc4[nH]ccc34)S(=O)(=O)c3ccc(F)c(c3)-c3nc2nn3C)c1)C(=O)O (single isomer, unassigned) [Compound 34B, 3-[3-(22,28-difluoro-3,6,10,10-tetramethyl-12,12,24,24-tetraoxo-12lambda6,24lambda6-dithia-3,4,19,30-tetrazapentacyclo[23.3.1.12,5.015,23.016,20]triaconta-1(29),2(30),4,15,17,20,22,25,27-nonaen-6-yl)phenyl]-2-methyl-propanoic Acid]	A (an ΔTagg value less than or equal to 5 °C is marked “A”)	A (a TECC value less than 12 is marked “A”)
Cn1nc2nc1-c1cc(ccc1F)C(=O)c1c(F)cc3[nH]ccc3c1CCS(=O)(=O)CC(C)(C)CCCC2(C)c1cccc(CCC(=O)O)c1 (single isomer, unassigned) [Compound 31C, 3-[3-[22,28-difluoro-3,6,10,10-tetramethyl-12,12,24-trioxo-12lambda6-thia-3,4,19,30-tetrazapentacyclo[23.3.1.12,5.015,23.016,20]triaconta-1(29),2(30),4,15,17,20,22,25,27-nonaen-6-yl]phenyl]propanoic Acid]	C (a value greater than 10 °C and less than or equal to 25 °C is marked “C”)	C (a value between 20 and 80 is marked “C”)
Cn1nc2nc1-c1cc(ccn1)[S+]([O-])c1c(F)cc3[nH]ccc3c1CCS(=O)(=O)CC(C)(C)CCC[C@]2(C)c1cccc(CC(=O)O)c1 (single isomer, unassigned) [Compound 249A]	C (a value greater than 10 °C and less than or equal to 25 °C is marked “C”)	C (a value between 20 and 80 is marked “C”)
[2H]C([2H])([2H])C1(c2cccc(CC(C)C(=O)O)c2)COCC(C)(C)CS(=O)(=O)CCc2c(c(F)cc3[nH]ccc23)Oc2ccc(F)c(c2)-c2nc1nn2C (single isomer, unassigned) [Compound 8B, 3-[3-[22,28-difluoro-3,10,10-trimethyl-12,12-dioxo-6-(trideuteriomethyl)-8,24-dioxa-12lambda6-thia-3,4,19,30-tetrazapentacyclo[23.3.1.12,5.015,23.016,20]triaconta-1(29),2(30),4,15,17,20,22,25,27-nonaen-6-yl]phenyl]-2-methyl-propanoic Acid]	A (an ΔTagg value less than or equal to 5 °C is marked “A”)	A (a TECC value less than 12 is marked “A”)
C[C@@H](Cc1cccc([C@@]2(C)CCCC(C)(C)CS(=O)(=O)CCc3c(c(F)cc4[nH]ccc34)[S+]([O-])c3ccnc(c3)-c3nc2nn3C)c1)C(=O)O (single isomer, unassigned) [Compound 222B]	C (a value greater than 10 °C and less than or equal to 25 °C is marked “C”)	C (a value between 20 and 80 is marked “C”)
Cn1nc2nc1-c1cc(ccc1F)Oc1c(F)cc3[nH]ccc3c1CCS(=O)(=O)CC(C)(C)CCCC2(C#N)c1cccc(CC2(C(=O)O)CC2)c1 (single isomer, unassigned) [Compound 122B, 1-[[3-(6-cyano-22,28-difluoro-3,10,10-trimethyl-12,12-dioxo-24-oxa-12λ6-thia-3,4,19,30-tetrazapentacyclo[23.3.1.12,5.015,23.016,20]triaconta-1(29),2(30),4,15,17,20,22,25,27-nonaen-6-yl)phenyl]methyl]cyclopropanecarboxylic Acid]	A (an ΔTagg value less than or equal to 5 °C is marked “A”)	A (a TECC value less than 12 is marked “A”)
CC(Cc1cccc(C2(C)CCCC3(CC3)CS(=O)(=O)CCc3c(c(F)cc4[nH]ccc34)Oc3ccc(F)c(c3)-c3nc2nn3C)c1)C(=O)O (single isomer, unassigned) [Compound 13B, 3-[3-(22,28-difluoro-3,6-dimethyl-12,12-dioxo-spiro[24-oxa-12lambda6-thia-3,4,19,30-tetrazapentacyclo[23.3.1.12,5.015,23.016,20]triaconta-1(29),2(30),4,15,17,20,22,25,27-nonaene-10,1′-cyclopropane]-6-yl)phenyl]-2-methyl-propanic Acid]	A (an ΔTagg value less than or equal to 5 °C is marked “A”)	C (a value between 20 and 80 is marked “C”)
Cn1nc2nc1-c1cc(ccc1F)Oc1c(F)cc3[nH]ccc3c1Cn1cc(cn1)C(C)(C)CS(=O)(=O)CCC2(C)c1cccc(CCC(=O)O)c1 (single isomer, unassigned) [Compound 109B, 3-[3-(24,30-difluoro-3,6,11,11-tetramethyl-9,9-dioxo-26-oxa-9lambda6-thia-3,4,14,15,21,33-hexazahexacyclo[25.3.1.12,5.112,15.017,25.018,22]tritriaconta-1(31),2(33),4,12(32),13,17,19,22,24,27,29-undecaen-6-yl)phenyl]propanoic Acid]	A (an ΔTagg value less than or equal to 5 °C is marked “A”)	A (a TECC value less than 12 is marked “A”)
Cn1nc2nc1-c1cc(ccc1F)Oc1c(F)cc3[nH]ccc3c1CCS(=O)(=O)CC(C)(C)OCCC2(C)c1cccc(CCC(=O)O)c1 (single isomer, unassigned) [Compound 73B, 3-[3-(22,28-difluoro-3,6,10,10-tetramethyl-12,12-dioxo-9,24-dioxa-12lambda6-thia-3,4,19,30-tetrazapentacyclo-[23.3.1.12,5.015,23.016,20]triaconta-1(29),2(30),4,15,17,20,22,25,27-nonaen-6-yl)phenyl]-propanoic Acid]	A (an ΔTagg value less than or equal to 5 °C is marked “A”)	B (a value between 12-20 is marked “B”)
[2H]C([2H])([2H])C1(c2cccc(CC(C)C(=O)O)c2)COCC(C)(C)CS(=O)(=O)CCc2c(c(F)cc3[nH]ccc23)Oc2ccc(F)c(c2)-c2nc1nn2C (single isomer, unassigned) [Compound 8A, 3-[3-[22,28-difluoro-3,10,10-trimethyl-12,12-dioxo-6-(trideuteriomethyl)-8,24-dioxa-12lambda6-thia-3,4,19,30-tetrazapentacyclo[23.3.1.12,5.015,23.016,20]triaconta-1(29),2(30),4,15,17,20,22,25,27-nonaen-6-yl]phenyl]-2-methyl-propanoic acid]	C (a value greater than 10 °C and less than or equal to 25 °C is marked “C”)	B (a value between 12-20 is marked “B”)
C[C@@H](Cc1cccc([C@@]2(C)CCCC(C)(C)CS(=O)(=O)CCc3c(c(F)cc4[nH]ccc34)[S+]([O-])c3cccc(c3)-c3nc2nn3C)c1)C(=O)O (single isomer, unassigned) [Compound 211B]	C (a value greater than 10 °C and less than or equal to 25 °C is marked “C”)	A (a TECC value less than 12 is marked “A”)
CC1(C)CSCc2c(c(F)cc3[nH]ccc23)Oc2ccc(F)c(c2)-c2nc(c[nH]2)C(C)(c2cccc(CCC(=O)O)c2)CCCO1 (stereo not shown) [Compound 46, 3-[3-(22,28-difluoro-6,11,11-trimethyl-10,24-dioxa-13-thia-3,19,30-triazapentacyclo[23.3.1.12,5.015,23.016,20]triaconta-1(29),2(30),4,15,17,20,22,25,27-nonaen-6-yl)phenyl]propanoic Acid]	C (a value greater than 10 °C and less than or equal to 25 °C is marked “C”)	C (a value between 20 and 80 is marked “C”)
Cn1nc2nc1-c1cc(ccc1F)Oc1c(F)cc3[nH]ccc3c1CCS(=O)(=O)CC(C)(C)OCCC2(C)c1cccc(CCC(=O)O)c1 (single isomer, unassigned) [Compound 73A, 3-[3-(22,28-difluoro-3,6,10,10-tetramethyl-12,12-dioxo-9,24-dioxa-12lambda6-thia-3,4,19,30-tetrazapentacyclo-[23.3.1.12,5.015,23.016,20]triaconta-1(29),2(30),4,15,17,20,22,25,27-nonaen-6-yl)phenyl]-propanoic Acid]	C (a value greater than 10 °C and less than or equal to 25 °C is marked “C”)	A (a TECC value less than 12 is marked “A”)

From patent US12649750B2, “Macrocyclic compounds, compositions, and methods of using thereof” (Sionna Therapeutics Inc., priority 2022, dated 2026)
